The record followed here is patent US20160016929A1, “PRO-DRUG COMPOUNDS” (PROXIMAGEN LIMITED, priority 2013, published 2016).

A short description of data set [1]: Solubility in aqueous solutions (Table 3). In kind it is physicochemical. The following applies: aqueous solution. Here is the method:
The skilled person understands that the pH of the gastrointestinal tract changes along its length. […] For more detail see, for example, Measurement of gastrointestinal pH profiles in normal ambulant human subjects, Gut. […] Improved solubility is expected to result in improved absorption, and therefore improved oral bioavailability.
In an embodiment prodrugs of the invention are administered intravenously. High prodrug solubility is advantageous in order to reduce the volume of solution administered to the patient, and to reduce the risk of damage to the circulatory system. Solubility of >10 mg/mL is preferred.

In a further data set the target is T1, hERG K+ channel (Homo sapiens, UniProt Q12809).
T1 construct: a Chinese Hamster Lung cell line stably expressing the full length hERG channel; expressed in transfected cells; host or cells: Chinese Hamster Lung cell line
T1 sequence (Q12809 whole entry): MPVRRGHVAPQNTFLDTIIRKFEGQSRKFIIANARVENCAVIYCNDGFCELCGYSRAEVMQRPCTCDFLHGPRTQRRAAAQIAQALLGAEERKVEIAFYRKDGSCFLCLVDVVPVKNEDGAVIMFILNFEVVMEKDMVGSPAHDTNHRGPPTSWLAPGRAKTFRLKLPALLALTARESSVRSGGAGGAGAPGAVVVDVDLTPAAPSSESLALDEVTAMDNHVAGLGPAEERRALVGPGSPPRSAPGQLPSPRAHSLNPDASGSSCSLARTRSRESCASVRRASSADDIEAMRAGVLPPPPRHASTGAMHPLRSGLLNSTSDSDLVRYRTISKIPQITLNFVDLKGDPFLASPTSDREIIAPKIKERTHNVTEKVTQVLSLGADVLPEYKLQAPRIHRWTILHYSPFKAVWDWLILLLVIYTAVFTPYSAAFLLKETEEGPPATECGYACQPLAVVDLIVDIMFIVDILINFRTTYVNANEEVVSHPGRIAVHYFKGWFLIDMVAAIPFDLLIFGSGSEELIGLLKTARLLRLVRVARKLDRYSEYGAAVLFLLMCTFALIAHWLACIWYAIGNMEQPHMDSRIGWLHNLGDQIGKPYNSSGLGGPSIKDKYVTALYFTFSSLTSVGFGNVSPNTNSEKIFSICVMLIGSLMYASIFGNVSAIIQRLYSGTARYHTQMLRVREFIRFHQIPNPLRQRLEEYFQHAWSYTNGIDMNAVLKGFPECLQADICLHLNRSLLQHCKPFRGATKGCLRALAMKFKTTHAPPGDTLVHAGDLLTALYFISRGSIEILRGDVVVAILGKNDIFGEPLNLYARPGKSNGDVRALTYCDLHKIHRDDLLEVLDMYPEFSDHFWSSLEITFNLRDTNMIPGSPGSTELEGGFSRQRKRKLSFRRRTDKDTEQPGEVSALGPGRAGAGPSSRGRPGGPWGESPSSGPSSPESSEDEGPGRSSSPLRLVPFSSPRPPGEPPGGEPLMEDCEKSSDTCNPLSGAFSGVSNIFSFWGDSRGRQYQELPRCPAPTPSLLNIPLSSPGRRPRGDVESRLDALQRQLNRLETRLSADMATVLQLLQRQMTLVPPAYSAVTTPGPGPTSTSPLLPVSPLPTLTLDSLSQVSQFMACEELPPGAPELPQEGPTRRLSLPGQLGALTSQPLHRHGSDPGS
The data set is described as follows: hERG assay, IonWorks patch clamp electrophysiology. It counts as cell-based. The following applies: human, pH 7.3; 11 uM; Chinese Hamster Lung cell line stably expressing hERG. Here is the method: Compounds of the invention were tested for inhibition of the human ether a go-go related gene (hERG) K^+ channel using IonWorks patch clamp electrophysiology. 8 Point concentration-response curves were generated on two occasions using 3-fold serial dilutions from the maximum assay concentration (33 uM). Electrophysiological recordings were made from a Chinese Hamster Lung cell line stably expressing the full length hERG channel. Single cell ion currents were measured in the perforated patch clamp configuration (100 ug/mL amphoterocin) at room temperature using an IonWorks Quattro instrument. The internal solution contained 140 mM KCl, 1 mM MgCl2, 1 mM EGTA and 20 mM HEPES and was buffered to pH 7.3. The external solution contained 138 mM NaCl, 2.7 mM KCl, 0.9 mM CaCl2, 0.5 mM MgCl2, 8 mM Na2HPO4 and 1.5 mM KH2PO4, and was buffered to pH 7.3. Cells were clamped at a holding potential of […] for 30 s and then stepped to +40 mV for 1 s. This was followed by a hyperpolarising step of 1 s to […] to evoke the hERG tail current. This sequence was repeated 5 times at a frequency of 0.25 Hz. Currents were measured from the tail step at the 5th pulse, and referenced to the holding current. Compounds were incubated for 6-7 min prior to a second measurement of the hERG signal using an identical pulse train. A minimum of 17 cells were required for each pIC50 curve fit. A control compound (quinidine) was used.

A short description of data set [2]: Pharmacokinetics: exposure of tonabersat in plasma after oral or intravenous dosing of prodrugs to rats. It counts as in vivo. The settings on record: fasted male Sprague Dawley rats. Here is the method:
Example Prodrugs of the claimed invention were dosed either intravenously or orally to fasted male Sprague Dawley rats. The rats underwent surgery for jugular vein cannulation 48 h prior to dosing. Following dosing, 0.25 mL blood samples were taken via the cannulae at 0, 5, 10, 20, 30, 45, 60, 120, 240 & 360 min in EDTA coated tubes. Tubes were spun at 13,000 rpm for 4 min and 100 ul of supernatant taken immediately and stored at −80° C. prior to analysis. Plasma samples were analysed by LC-MS/MS following extraction by protein precipitation, and levels of parent prodrug and tonabersat were measured by MRM (Multiple Reaction Monitoring) analysis against an extracted calibration curve of plasma samples spiked with the Example prodrug and tonabersat.
The exposure of tonabersat in plasma following dosing of the prodrugs of the invention was compared directly to the exposure observed following dosing of an equimolar amount of tonabersat under analogous assay conditions (5.00 mg/kg oral dosing or 0.78 mg/kg intravenous dosing). In an embodiment prodrugs of the present invention have >10% exposure of tonabersat obtained following either oral or intravenous dosing of the prodrug to a human or animal subject, compared to the exposure obtained from dosing an equimolar amount of tonabersat itself. In an embodiment the exposure of tonabersat following dosing of the prodrugs is >20%, or >30%, or >40%, or >50%, or preferably >70% compared to the exposure obtained from dosing an equimolar amount of tonabersat itself.

The solubility is the dissolved amount per volume that the medium holds. By inhibition is commonly meant the change of the read-out against control, counted positive when it falls.

Molecules are shown by their SMILES. Values after ≈ are worked out from the molar mass of the structure shown. Some results are limits rather than exact numbers.

On to `CC(=O)c1ccc2c(c1)[C@H](NC(=O)c1ccc(F)c(Cl)c1)[C@H](OC(=O)OCC[N+](C)(C)C)C(C)(C)O2.[I-]` [Example 2, (3S,4S)-6-Acetyl-4-[(3-chloro-4-fluorobenzene)amido]-2,2-dimethyl-3,4-dihydro-2H-1-benzopyran-3-yl 2-(trimethylazaniumyl)ethyl carbonate iodide], for which the solubility in data set [1] (aqueous buffer, pH not given) was less than 1000 µg/mL.

Take `CCN(CC)CCOC(=O)O[C@H]1[C@@H](NC(=O)c2ccc(F)c(Cl)c2)c2cc(C(C)=O)ccc2OC1(C)C` [Example 3, (3S,4S)-6-Acetyl-4-[(3-chloro-4-fluorobenzene)amido]-2,2-dimethyl-3,4-dihydro-2H-1-benzopyran-3-yl 2-(diethylamino)ethyl carbonate]: on hERG K+ channel, the inhibition at 11 µM stood at 20%. The molecule further had a solubility in data set [1] (aqueous buffer, pH not given) of less than 1000 µg/mL.

`CC(=O)c1ccc2c(c1)[C@H](NC(=O)c1ccc(F)c(Cl)c1)[C@H](OC(=O)OC[C@H](N)C(=O)O)C(C)(C)O2.Cl` [Example 5, (2S)-3-[({[(3S,4S)-6-Acetyl-4-[(3-chloro-4-fluorobenzene)amido]-2,2-dimethyl-3,4-dihydro-2H-1-benzopyran-3-yl]oxy}carbonyl)oxy]-2-aminopropanoic acid hydrochloride]: the “% exposure of tonabersat after dosing the prodrugs of the invention via: Intravenous dosing (iv)” value in data set [2] (compared to equimolar amount of tonabersat (0.78 mg/kg intravenous dosing)) stood at 37%. For the same molecule, in data set [2] (compared to equimolar amount of tonabersat (5.00 mg/kg oral dosing)), the “% exposure of tonabersat after dosing the prodrugs of the invention via: Oral dosing (po)” value was found to be 39%.

As for `CC(=O)c1ccc2c(c1)[C@H](NC(=O)c1ccc(F)c(Cl)c1)[C@H](OC(=O)NCC(=O)O)C(C)(C)O2` [Example 7, 2-[({[(3S,4S)-6-Acetyl-4-[(3-chloro-4-fluorobenzene)amido]-2,2-dimethyl-3,4-dihydro-2H-1-benzopyran-3-yl]oxy}carbonyl)amino]acetic acid], in data set [1] (pH 8.8, aqueous buffer), the solubility is less than 1000 µg/mL.

As to `CC(=O)c1ccc2c(c1)[C@H](NC(=O)c1ccc(F)c(Cl)c1)[C@H](OC(=O)CNC(=O)[C@@H]1CCCN1)C(C)(C)O2` [Example 10, (3S,4S)-6-Acetyl-4-[(3-chloro-4-fluorobenzene)amido]-2,2-dimethyl-3,4-dihydro-2H-1-benzopyran-3-yl 2-[(2S)-pyrrolidin-2-ylformamido]acetate], 11 µM produced 32% inhibition against hERG K+ channel. Moreover, in data set [1] (pH 4.2, aqueous buffer), the solubility is 500 µg/mL (≈ 916 µM).

`CC(=O)c1ccc2c(c1)[C@H](NC(=O)c1ccc(F)c(Cl)c1)[C@H](OC(=O)CNC(=O)[C@@H](N)CC(C)C)C(C)(C)O2.Cl` [Example 11, (3S,4S)-6-Acetyl-4-[(3-chloro-4-fluorobenzene)amido]-2,2-dimethyl-3,4-dihydro-2H-1-benzopyran-3-yl 2-[(2S)-2-amino-4-methylpentanamido]acetate hydrochloride] returned an inhibition at 11 µM at hERG K+ channel of 34%. The molecule further showed a solubility in data set [1] (aqueous buffer, pH 5.0) of more than 10000 µg/mL.

At hERG K+ channel, `CC(=O)c1ccc2c(c1)[C@H](NC(=O)c1ccc(F)c(Cl)c1)[C@H](OC(=O)CNC(=O)CN)C(C)(C)O2.Cl` [Example 12, (3S,4S)-6-Acetyl-4-[(3-chloro-4-fluorobenzene)amido]-2,2-dimethyl-3,4-dihydro-2H-1-benzopyran-3-yl 2-(2-aminoacetamido)acetate hydrochloride] yielded an inhibition at 11 µM of 43%. For the same molecule, the solubility in data set [1] (pH 5.1, aqueous buffer) is more than 10000 µg/mL.

Take `CC[C@H](C)[C@H](N)C(=O)NCC(=O)O[C@H]1[C@@H](NC(=O)c2ccc(F)c(Cl)c2)c2cc(C(C)=O)ccc2OC1(C)C.Cl` [Example 13, (3S,4S)-6-Acetyl-4-[(3-chloro-4-fluorobenzene)amido]-2,2-dimethyl-3,4-dihydro-2H-1-benzopyran-3-yl 2-[(2S,3S)-2-amino-3-methylpentanamido]acetate hydrochloride]: at 11 µM the inhibition on hERG K+ channel was 2%. This molecule also returned a solubility in data set [1] (aqueous buffer, pH 5.0) of more than 10000 µg/mL.

`CC(=O)c1ccc2c(c1)[C@H](NC(=O)c1ccc(F)c(Cl)c1)[C@H](OC(=O)CNC(=O)[C@@H](N)C(C)C)C(C)(C)O2.Cl` [Example 14, (3S,4S)-6-Acetyl-4-[(3-chloro-4-fluorobenzene)amido]-2,2-dimethyl-3,4-dihydro-2H-1-benzopyran-3-yl 2-[(2S)-2-amino-3-methylbutanamido]acetate hydrochloride] showed an inhibition at 11 µM against hERG K+ channel of 14%. The molecule also displayed a solubility in data set [1] (pH 5.5, aqueous buffer) of more than 10000 µg/mL.

On hERG K+ channel, `CC(=O)c1ccc2c(c1)[C@H](NC(=O)c1ccc(F)c(Cl)c1)[C@H](OC(=O)[C@@H](NC(=O)[C@@H](N)C(C)C)C(C)C)C(C)(C)O2.Cl` [Example 15, (3S,4S)-6-Acetyl-4-[(3-chloro-4-fluorobenzene)amido]-2,2-dimethyl-3,4-dihydro-2H-1-benzopyran-3-yl (2S)-2-[(2S)-2-amino-3-methylbutanamido]-3-methylbutanoate hydrochloride] showed an inhibition at 11 µM of 21%. Further, the solubility in data set [1] (pH 4.5, aqueous buffer) was more than 10000 µg/mL.

The molecule `CC(=O)c1ccc2c(c1)[C@H](NC(=O)c1ccc(F)c(Cl)c1)[C@H](OC(=O)[C@@H](NC(=O)CN)C(C)C)C(C)(C)O2.Cl` [Example 16, (3S,4S)-6-Acetyl-4-[(3-chloro-4-fluorobenzene)amido]-2,2-dimethyl-3,4-dihydro-2H-1-benzopyran-3-yl (2S)-2-(2-aminoacetamido)-3-methylbutanoate hydrochloride] yielded a solubility in data set [1] (pH 4.4, aqueous buffer) of 1000 µg/mL.

`CC(=O)c1ccc2c(c1)[C@H](NC(=O)c1ccc(F)c(Cl)c1)[C@H](OC(=O)CCCN1CCOCC1)C(C)(C)O2.Cl` [Example 17, (3S,4S)-6-Acetyl-4-[(3-chloro-4-fluorobenzene)amido]-2,2-dimethyl-3,4-dihydro-2H-1-benzopyran-3-yl 4-(morpholin-4-yl)butanoate hydrochloride] came in with an inhibition at 11 µM against hERG K+ channel of 27%. Moreover, in data set [1] (pH 5.7, aqueous buffer), the solubility was determined as 1000 µg/mL.

`CC(=O)c1ccc2c(c1)[C@H](NC(=O)c1ccc(F)c(Cl)c1)[C@H](OC(=O)[C@H](C)NC(=O)[C@@H](N)C(C)C)C(C)(C)O2.Cl` [Example 20, (3S,4S)-6-Acetyl-4-[(3-chloro-4-fluorobenzene)amido]-2,2-dimethyl-3,4-dihydro-2H-1-benzopyran-3-yl (2S)-2-[(2S)-2-amino-3-methylbutanamido]propanoate hydrochloride] yielded a solubility in data set [1] (pH 5.6, aqueous buffer) of more than 10000 µg/mL.

Consider `CC(=O)c1ccc2c(c1)[C@H](NC(=O)c1ccc(F)c(Cl)c1)[C@H](OC(=O)[C@H](C)NC(=O)[C@@H](N)CC(C)C)C(C)(C)O2.Cl` [Example 21, 6-Acetyl-4-[(3-chloro-4-fluorobenzene)amido]-2,2-dimethyl-3,4-dihydro-2H-1-benzopyran-3-yl (2S)-2-[(2S)-2-amino-4-methylpentanamido]propanoate hydrochloride], for which the solubility in data set [1] (pH 5.2, aqueous buffer) was more than 10000 µg/mL.

For the molecule `CC(=O)c1ccc2c(c1)[C@H](NC(=O)c1ccc(F)c(Cl)c1)[C@H](OC(=O)[C@H](C)N(C)C(=O)[C@@H](N)C(C)C)C(C)(C)O2.Cl` [Example 29, 6-Acetyl-4-[(3-chloro-4-fluorobenzene)amido]-2,2-dimethyl-3,4-dihydro-2H-1-benzopyran-3-yl (2S)-2-[(2S)-2-amino-N,3-dimethylbutanamido]propanoate hydrochloride], the solubility in data set [1] (pH 5.3, aqueous buffer) is more than 10000 µg/mL.
